Laboratory results as given in patent US8394769B2, “Anti-hypertensive agent” (MG Pharma Inc., priority 2007, dated 2013).

System: Spontaneously hypertensive rats (SHR/Izm)
Test: Systolic blood pressure in spontaneously hypertensive rats after single dose of synthesized peptides (2) to (6) (tail-cuff method)
Type: in vivo, rat
Conditions: single dose 50 mg/kg body weight, *p < 0.05, **p < 0.01
Text: The following peptides were synthesized according to known methods, based on the amino acid sequences of peptides isolated from the globin proteolysate prepared in Experimental Example 3 and identified. The peptide (WGKV; SEQ ID NO:3) (3) corresponds to a peptide produced by one amino acid deletion at the C terminus from the amino acid sequence of the peptide (WGKVN; SEQ ID NO:2) (2), and the peptide (WGK; SEQ ID NO:4) (4) corresponds to a peptide produced by deleting a further amino acid at the C terminus.
Spontaneously hypertensive rats (SHR/Izm, male, 12-week-old, body weight: 285 g, Japan SLC, Inc.) were administered in a single dose with the peptides synthesized above (peptides (2) to (6)) in an amount of 50 mg/kg body weight. Two, four, and six hours after the start of administration, the systolic blood pressures of the rats were measured using a non-heating non-invasive blood pressure monitor (“MK-2000”, manufactured by Muromachi Kikai Co., Ltd.) by the tail-cuff method without using anesthesia. Spontaneously hypertensive rats as a control group were orally administered with a solvent (distilled water), and the systolic blood pressures of the rats were measured in a similar manner.

| Substance | Reduction in blood pressure, 2 hours after administration | Reduction in blood pressure, 4 hours after administration | Reduction in blood pressure, 6 hours after administration |
| --- | --- | --- | --- |
| Ala-Ala-Trp-Gly-Lys (AAWGK; Peptide found in globin hydrolysate) | −7 ± 4 mmHg | −8 ± 12 mmHg | −4 ± 8 mmHg |
| Phe-Glu-Ser (FES; Peptide found in globin hydrolysate) | −15 ± 4* mmHg | −13 ± 8 mmHg | −15 ± 6 mmHg |
| Trp-Gly-Lys (WGK; Peptide found in globin hydrolysate) | −3 ± 7 mmHg | −23 ± 8** mmHg | −15 ± 8 mmHg |
| Trp-Gly-Lys-Val (WGKV; Peptide found in globin hydrolysate) | −9 ± 3 mmHg | −4 ± 4 mmHg | −3 ± 3 mmHg |
| Trp-Gly-Lys-Val-Asn (WGKVN; Peptide found in globin hydrolysate) | −16 ± 4** mmHg | −12 ± 4* mmHg | −14 ± 3** mmHg |
